In patent publication US20120058989A1, “ANTIBACTERIAL FLUOROQUINOLONE ANALOGS” (Achaogen, Inc., priority 2008, published 2012):
In brackets after ≈: the same amount, converted by molar mass.

Key:
Experiment in all cases: MIC, CLSI broth microdilution
Type in all cases: cell-based
[1] = test system: A. baumannii AABA1009 (Fluoroquinolone-resistant); conditions: for MIC AABA 1009: Table 2; for MIC: Acinetobacter baumannii, Table 2, read-out: MIC AABA 1009
Procedure, shortened: (§1)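 CLSI M7-A7 broth microdilution in Mueller Hinton Broth using two-fold compound serial dilutions. Inoculum was prepared from the previous day's agar colonies at a final 5×10^5 CFU/mL. Plates were incubated at 35° C for 20 hours in ambient air.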

[2] = test system: A. baumannii AABA1065 (Fluoroquinolone-susceptible); conditions: for MIC AABA 1065: Table 2; for MIC: Acinetobacter baumannii, Table 2, read-out: MIC AABA 1065
Procedure, shortened: as §1

[3] = test system: E. coli AECO001 (Fluoroquinolone susceptible, ATCC25922); conditions: Table 2, 35° C., 20 hours; for MIC: Escherichia coli, read-out: MIC AECO 001
Procedure, shortened: as §1

[4] = test system: E. coli AECO066 (Fluoroquinolone-resistant); conditions: for MIC AECO 066: Table 2; for MIC: Escherichia coli, Table 2, read-out: MIC AECO 066
Procedure, shortened: as §1

[5] = test system: P. aeruginosa APAE001 (Fluoroquinolone-susceptible, ATCC27853); conditions: for MIC APAE 001: Table 2; for MIC: Pseudomonas aeruginosa, Table 2, read-out: MIC APAE 001
Procedure, shortened: as §1

[6] = test system: P. aeruginosa APAE054 (Fluoroquinolone-resistant); conditions: for MIC APAE 054: Table 2; for MIC: Pseudomonas aeruginosa, Table 2, read-out: MIC APAE 054
Procedure, shortened: as §1

[7] = test system: S. aureus ASAU001 (Fluoroquinolone-susceptible, ATCC29213); conditions: for MIC ASAU 001: Table 2; for MIC: Staphylococcus aureus, Table 2, read-out: MIC ASAU 001
Procedure, shortened: as §1

[8] = test system: S. aureus ASAU1031 (Fluoroquinolone-resistant); conditions: for MIC ASAU 1031: Table 2; for MIC: Staphylococcus aureus, Table 2, read-out: MIC ASAU 1031
Procedure, shortened: as §1

[9] = test system: S. pneumoniae ASPN001 (Fluoroquinolone-susceptible, ATCC49619); conditions: for MIC ASPN 001: Table 2; for MIC: Streptococcus pneumoniae, Table 2, read-out: MIC ASPN 001
Procedure, shortened: as §1

[10] = test system: S. pneumoniae ASPN1027 (Fluoroquinolone-resistant); conditions: for MIC ASPN 1027: Table 2; for MIC: Streptococcus pneumoniae, Table 2, read-out: MIC ASPN 1027
Procedure, shortened: as §1

SMILES | MIC AABA 1009 [1] | MIC AABA 1065 [2] | MIC AECO 001 [3] | MIC AECO 066 [4] | MIC APAE 001 [5] | MIC APAE 054 [6] | MIC ASAU 001 [7] | MIC ASAU 1031 [8] | MIC ASPN 001 [9] | MIC ASPN 1027 [10] | MIC [1] | MIC [2] | MIC [3] | MIC [4] | MIC [5] | MIC [6] | MIC [7] | MIC [8] | MIC [9] | MIC [10]
O=C(O)c1cn(C2CC2)c2c3c(c(F)cc2c1=O)N1C(=O)CC[C@H]1CC=C3 [23/12, (7aS)-4-Cyclopropyl-12-fluoro-1,10-dioxo-4,7,7a,8,9,10-hexahydro-1H-pyrrolo[1′,2′:1,7]azepino[2,3-h]quino-line-2-carboxylic acid] | C (MIC's of greater than 8.0 μg/mL = C) | C (MIC's of greater than 8.0 μg/mL = C) | C (MIC's of greater than 8.0 μg/mL = C) | C (MIC's of greater than 8.0 μg/mL = C) | C (MIC's of greater than 8.0 μg/mL = C) | C (MIC's of greater than 8.0 μg/mL = C) | B (MIC's of greater than 1.0 μg/mL to 8.0 μg/mL = B) | C (MIC's of greater than 8.0 μg/mL = C) | C (MIC's of greater than 8.0 μg/mL = C) | C (MIC's of greater than 8.0 μg/mL = C) | – | – | – | – | – | – | – | – | – | –
N[C@H]1CC2CCCc3c(c(F)cc4c(=O)c(C(=O)O)cn(C5CC5)c34)N2C1 (stereo partly drawn) [32/4] | – | – | – | – | – | – | – | – | – | – | > 8 µg/mL | > 8 µg/mL | ≤ 1 µg/mL | > 8 µg/mL | 1 to 8 µg/mL (≈ 2.69 to 21.5 µM) | > 8 µg/mL | ≤ 1 µg/mL | > 8 µg/mL | ≤ 1 µg/mL | 1 to 8 µg/mL (≈ 2.69 to 21.5 µM)
O=C(O)c1cn(C2CC2)c2c3c(c(F)cc2c1=O)N1C(=O)CC[C@H]1CCC3 [23/14, (7aR)-4-Cyclopropyl-12-fluoro-1,10-dioxo-4,5,6,7,7a,8,9,10-octahydro-1H-pyrrolo[1′,2′:1,7]azepino[2,3-h]quinoline-2-carboxylic acid] | C (MIC's of greater than 8.0 μg/mL = C) | C (MIC's of greater than 8.0 μg/mL = C) | C (MIC's of greater than 8.0 μg/mL = C) | C (MIC's of greater than 8.0 μg/mL = C) | C (MIC's of greater than 8.0 μg/mL = C) | C (MIC's of greater than 8.0 μg/mL = C) | C (MIC's of greater than 8.0 μg/mL = C) | C (MIC's of greater than 8.0 μg/mL = C) | C (MIC's of greater than 8.0 μg/mL = C) | C (MIC's of greater than 8.0 μg/mL = C) | – | – | – | – | – | – | – | – | – | –
O=C(O)c1cn(C2CC2)c2c3c(c(F)cc2c1=O)N1C[C@H](O)C[C@H]1CC=C3 [18/6, (7aR,9R)-4-Cyclopropyl-12-fluoro-9-hydroxy-1-oxo-4,7,7a,8,9,10-hexahydro-1H-pyrrolo[1′,2′:1,7]azepino-[2,3-h]quinoline-2-carboxylic acid] | C (MIC's of greater than 8.0 μg/mL = C) | B (MIC's of greater than 1.0 μg/mL to 8.0 μg/mL = B) | A (MIC's of 1.0 μg/mL or less = A) | C (MIC's of greater than 8.0 μg/mL = C) | C (MIC's of greater than 8.0 μg/mL = C) | C (MIC's of greater than 8.0 μg/mL = C) | A (MIC's of 1.0 μg/mL or less = A) | B (MIC's of greater than 1.0 μg/mL to 8.0 μg/mL = B) | A (MIC's of 1.0 μg/mL or less = A) | C (MIC's of greater than 8.0 μg/mL = C) | – | – | – | – | – | – | – | – | – | –
NC1CCN2c3c(F)cc4c(=O)c(C(=O)O)cn(C5CC5)c4c3COCC12.O=C(O)C(F)(F)F [6/7, (3aS,4R)-4-amino-13-cyclopropyl-8-fluoro-10-oxo-3a,4,5,6,10,13-hexahydro-1H,3H-pyrrolo[2′,1′:3,4][1,4]oxazepino[5,6-h]quinoline-1′-carboxylic acid trifluoroacetate] | B (MIC's of greater than 1.0 μg/mL to 8.0 μg/mL = B) | A (MIC's of 1.0 μg/mL or less = A) | A (MIC's of 1.0 μg/mL or less = A) | B (MIC's of greater than 1.0 μg/mL to 8.0 μg/mL = B) | A (MIC's of 1.0 μg/mL or less = A) | C (MIC's of greater than 8.0 μg/mL = C) | A (MIC's of 1.0 μg/mL or less = A) | B (MIC's of greater than 1.0 μg/mL to 8.0 μg/mL = B) | A (MIC's of 1.0 μg/mL or less = A) | A (MIC's of 1.0 μg/mL or less = A) | – | – | – | – | – | – | – | – | – | –
O=C(O)c1cn(C2CC2)c2c3c(c(F)cc2c1=O)N1CCCC1CC(O)C3O (stereo not drawn) [27/9, 4-Cyclopropyl-12-fluoro-5,6-dihydroxy-1-oxo-4,5,6,7,7a,8,9,10-octahydro-1H-pyrrolo[1′,2′:1,7]azepino[2,3-h]quinoline-2-carboxylic acid] | C (MIC's of greater than 8.0 μg/mL = C) | B (MIC's of greater than 1.0 μg/mL to 8.0 μg/mL = B) | B (MIC's of greater than 1.0 μg/mL to 8.0 μg/mL = B) | C (MIC's of greater than 8.0 μg/mL = C) | C (MIC's of greater than 8.0 μg/mL = C) | C (MIC's of greater than 8.0 μg/mL = C) | B (MIC's of greater than 1.0 μg/mL to 8.0 μg/mL = B) | C (MIC's of greater than 8.0 μg/mL = C) | C (MIC's of greater than 8.0 μg/mL = C) | C (MIC's of greater than 8.0 μg/mL = C) | – | – | – | – | – | – | – | – | – | –
O=C(O)c1cn(C2CC2)c2c3c(c(F)cc2c1=O)N1CCC[C@H]1CCC3 [1/10] | – | – | – | – | – | – | – | – | – | – | > 8 µg/mL | 1 to 8 µg/mL (≈ 2.81 to 22.4 µM) | ≤ 1 µg/mL | > 8 µg/mL | > 8 µg/mL | > 8 µg/mL | ≤ 1 µg/mL | 1 to 8 µg/mL (≈ 2.81 to 22.4 µM) | ≤ 1 µg/mL | > 8 µg/mL
N[C@H]1C[C@H]2CCCc3c(c(F)cc4c(=O)c(C(=O)O)cn(C5CC5)c34)N2C1.O=C(O)C(F)(F)F [7B/17, (7aR,9S)-9-Amino-4-cyclopropyl-12-fluoro-1-oxo-4,5,6,7,7a,8,9,10-octahydro-1H-pyrrolo[1′,′:1,7]-azepino[2,3-h]quinoline-2-carboxylic acid trifluoroacetate] | C (MIC's of greater than 8.0 μg/mL = C) | A (MIC's of 1.0 μg/mL or less = A) | A (MIC's of 1.0 μg/mL or less = A) | B (MIC's of greater than 1.0 μg/mL to 8.0 μg/mL = B) | B (MIC's of greater than 1.0 μg/mL to 8.0 μg/mL = B) | C (MIC's of greater than 8.0 μg/mL = C) | A (MIC's of 1.0 μg/mL or less = A) | B (MIC's of greater than 1.0 μg/mL to 8.0 μg/mL = B) | A (MIC's of 1.0 μg/mL or less = A) | B (MIC's of greater than 1.0 μg/mL to 8.0 μg/mL = B) | – | – | – | – | – | – | – | – | – | –
O=C(O)c1cn(C2CC2)c2c3c(c(F)cc2c1=O)N1CCCC1C[S+]([O-])C3 (stereo not drawn) [8/14, 13-Cyclopropyl-8-fluoro-10-oxo-3a,4,5,6,10,13-hexahydro-1H,3H-pyrrolo[2′,1′:3,4][1,4]thiazepino[5,6-h]quinoline-1′-carboxylic acid 2-oxide] | C (MIC's of greater than 8.0 μg/mL = C) | B (MIC's of greater than 1.0 μg/mL to 8.0 μg/mL = B) | B (MIC's of greater than 1.0 μg/mL to 8.0 μg/mL = B) | C (MIC's of greater than 8.0 μg/mL = C) | C (MIC's of greater than 8.0 μg/mL = C) | C (MIC's of greater than 8.0 μg/mL = C) | B (MIC's of greater than 1.0 μg/mL to 8.0 μg/mL = B) | C (MIC's of greater than 8.0 μg/mL = C) | C (MIC's of greater than 8.0 μg/mL = C) | C (MIC's of greater than 8.0 μg/mL = C) | – | – | – | – | – | – | – | – | – | –
